Earlier results on 1 substance are cited in EP1693447A1, “Procedure for the preparation of superoxide dismutase” (Gnosis S.p.A., priority 2005, dated 2006).

In the data set the test system is superoxide dismutase. As to conditions: SOD currently on the market.

Take “Bovine liver - PEG superoxide dismutase - freeze-dried powder: type of SOD currently on the market, PEG superoxide dismutase”: the “superoxide dismutase units/mg of protein” value is “Bovine liver - PEG superoxide dismutase - freeze-dried powder ≥ 1,350 units/mg of protein”.
